This is an account of results in patent US11192890B2, “FGFR kinase inhibitors and pharmaceutical uses” (AUCKLAND UNISERVICES LIMITED, priority 2017, dated 2021).

For data set [1], the system named is SW780 cells. Nature of the data set: Oxic and anoxic anti-proliferative activity of the prodrugs. The class given is cell-based. Conditions: Homo sapiens, SW780; oxic conditions; read-out: Cellular Anti-proliferative IC50, SW780, Oxic.
Data set [2] relates to SW780 (FGFR3-amplified bladder cancer) xenograft. Nature of the data set: Anti-tumour activity, SW780 xenograft. The note with it: 30 umol/kg, q3dx4, IP. Format: in vivo, NIH-III nude mice. The method, then:
Specific pathogen-free homozygous female NIH-III nude mice (Charles River Laboratories, Wilmington, Mass.) were inoculated subcutaneously with a single cell suspension of SW780 cells (8×10^6 cells/100 μL with Matrigel; right flank) or SNU-16 cells (10×10^6 cells/100 μL; right flank). When tumour xenografts were established (typically 7-14 days for SW780 and 21-28 days for SNU-16) mice were randomized to treatment groups. Test compounds of the present invention were prepared in Water for Injection (WFI). Mice were dosed by intraperitoneal injection (0.01-0.03 ml/g) using the stated schedules and dose levels. […] Tumour size and body weights were measured at regular intervals. Tumour volume was calculated as […] (length×width^2)/6.

The test system of data set [3] is H520 cells. Nature of the data set: Oxic and anoxic anti-proliferative activity of the prodrugs. Conditions: for Hypoxic Cytotoxicity Ratio (HCR), H520: ratio of oxic and anoxic IC50.
In data set [4] the test system is SUM52 cells. The description is as above. Conditions: for Hypoxic Cytotoxicity Ratio (HCR), SUM52: ratio of oxic and anoxic IC50.
Data set [5] relates to FGFR2-amplified SUM52 breast cancer cells. Nature of the data set: Cell proliferation assay (SRB). Format: cell-based.
Data set [6] has as its system FGFR1 in H520 cells (phospho-ERK1/2). Nature of the data set: Drug washout Western blot assay, H520 cells. Format: cell-based. The note with it: H520; for phospho-ERK1/2 after extensive drug washout: 30 min, washout prior to FGF-stimulation.
Data set [7] relates to FGFR2 in SUM52 cells (phospho-ERK1/2). Nature of the data set: Drug washout Western blot assay, SUM52 cells. The class given is cell-based. Conditions: SUM52, 30 min, washout prior to FGF-stimulation. On the procedure: Cells were seeded on the day prior to drug treatment (1 million cells/well; 6-well plate).
Drug stocks were prepared in media using 1 mM or 10 mM DMSO stock solutions. Media was aspirated from each well and replaced with 2 ml of drug-free media for control wells or 2 ml of diluted drug for treated wells. Cells were exposed to drug for 30 min. Recombinant FGF (50 ng/well) was added to each well 15 minutes prior to the end of the drug exposure and protein was extracted as below.
Cells were exposed to drug for 30 min as above. Media was aspirated and each well was washed with 5 ml drug-free media. The wash media was aspirated and replaced with 2 ml drug-free media and cells incubated for a further 30 minutes, after which the wash protocol was repeated. Cells were incubated for a further 90 minutes in drug-free media. Recombinant FGF (50 ng/well) was added to each well 15 minutes prior to the end of the drug-free incubation and protein was extracted as below.
Cell lysates were prepared in 250 μL of RIPA lysis buffer containing protease inhibitor (1:100). After incubation on ice (30 min) and centrifugation (13,000 rpm, 5 min, 4° C.) the supernatants containing the proteins were stored (−20° C.) until required. Bicinchoninic acid (BCA) assay was used to determine the protein concentration of individual cell lysate samples.

In data set [8] the test system is FGFR3 in SW780 cells (phospho-ERK1/2). Nature of the data set: Drug washout Western blot assay, SW780 cells. The note with it: SW780, 30 min; for inhibition of phosphorylation of ERK1/2, no washout: then FGF-stimulation; for phospho-ERK1/2 after extensive drug washout: washout prior to FGF-stimulation. The class given is cell-based. (In general: A western blot detects proteins with antibodies after separation by electrophoresis.)

For data set [9], the system named is FGFR3-amplified SW780 bladder cancer cells. Nature of the data set: Cell proliferation assay (SRB).
Data set [10] addresses T1, FGFR4 (Homo sapiens, UniProt P22455).
T1 construct: purchased Invitrogen
Nature of the data set: Isolated enzyme FRET-based Z-Lyte kinase inhibition assay. Format: biochemical. The note with it: means from 3 independent experiments; read-out: Isolate Enzyme Inhibition IC50, FGFR4. The method, then: (§1) FGFR1-4 and the Z-Lyte Kinase Assay Kit were purchased from Invitrogen. The concentration gradients from 5.1×10^−11 to 1.0×10^−6 mol/L were used for all the test compounds. The experiments were performed according to the instructions of the manufacturer.
(§2) FGFR1-4 isolated enzyme activity was determined using the FRET-based Z-Lyte kinase inhibition assay. The data are the means from 3 independent experiments.

Data set [11] has as its system FGFR4-amplified Hep3B hepatocellular carcinoma cells. Nature of the data set: Cell proliferation assay (SRB). Format: cell-based. Conditions: read-out: Cellular Anti-proliferative IC50, Hep3B.
The target in data set [12] is T2, FGFR2 (Homo sapiens, UniProt P21802).
T2 construct: purchased Invitrogen
Nature of the data set: Isolated enzyme FRET-based Z-Lyte kinase inhibition assay. The class given is biochemical. Conditions: means from 3 independent experiments; read-out: Isolate Enzyme Inhibition IC50, FGFR2. The method, then:
as §1, §2

In data set [13] the target is T3, FGFR3 (Homo sapiens, UniProt P22607).
T3 construct: purchased Invitrogen
Described as above. The note with it: means from 3 independent experiments; read-out: Isolate Enzyme Inhibition IC50, FGFR3. Format: biochemical. On the procedure:
as §1, §2

The mark [14] stands for this setting: read-out: Cellular Anti-proliferative IC50, H520, Oxic, oxic conditions.
[15] abbreviates: read-out: Cellular Anti-proliferative IC50, SUM52, Anoxic, 4 hours of anoxia, remainder of assay oxic.
Where [16] appears, read: read-out: Cellular Anti-proliferative IC50, SUM52, Oxic, oxic conditions.
Where [17] appears, read: read-out: Cellular Anti-proliferative IC50, H520, Anoxic, 4 hours of anoxia, remainder of assay oxic.
The mark [18] stands for this setting: read-out: Cellular Anti-proliferative IC50, SUM52, 5 days drug exposure.
[19] abbreviates: read-out: Cellular Anti-proliferative IC50, SW780, 5 days drug exposure.

“And” between values parts separate entries of the source, which are not always exact repeats. Equal entries are not always repeated. Where two headings read alike, the source gives them in different places.

T1 sequence (P22455 22-802): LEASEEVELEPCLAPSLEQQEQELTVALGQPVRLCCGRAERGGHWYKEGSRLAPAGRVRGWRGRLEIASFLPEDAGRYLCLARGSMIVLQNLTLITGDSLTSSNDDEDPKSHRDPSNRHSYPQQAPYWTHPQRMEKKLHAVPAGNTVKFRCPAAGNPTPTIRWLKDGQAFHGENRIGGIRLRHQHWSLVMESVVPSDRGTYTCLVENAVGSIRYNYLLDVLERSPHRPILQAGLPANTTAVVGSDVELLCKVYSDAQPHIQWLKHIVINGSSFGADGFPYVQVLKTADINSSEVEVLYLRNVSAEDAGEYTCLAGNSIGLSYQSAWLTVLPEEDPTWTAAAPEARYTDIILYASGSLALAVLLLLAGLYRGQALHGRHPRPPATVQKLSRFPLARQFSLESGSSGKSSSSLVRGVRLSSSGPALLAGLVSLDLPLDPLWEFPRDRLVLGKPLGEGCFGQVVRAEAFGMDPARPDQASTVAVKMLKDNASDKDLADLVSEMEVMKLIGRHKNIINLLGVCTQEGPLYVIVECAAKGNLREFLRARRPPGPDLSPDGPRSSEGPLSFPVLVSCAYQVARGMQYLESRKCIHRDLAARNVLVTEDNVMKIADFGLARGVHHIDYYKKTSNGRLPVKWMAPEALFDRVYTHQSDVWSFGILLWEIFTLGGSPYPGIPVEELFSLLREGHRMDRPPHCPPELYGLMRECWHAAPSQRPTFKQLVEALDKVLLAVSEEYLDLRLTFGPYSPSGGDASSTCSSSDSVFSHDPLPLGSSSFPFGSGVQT
T3 sequence (P22607 23-806): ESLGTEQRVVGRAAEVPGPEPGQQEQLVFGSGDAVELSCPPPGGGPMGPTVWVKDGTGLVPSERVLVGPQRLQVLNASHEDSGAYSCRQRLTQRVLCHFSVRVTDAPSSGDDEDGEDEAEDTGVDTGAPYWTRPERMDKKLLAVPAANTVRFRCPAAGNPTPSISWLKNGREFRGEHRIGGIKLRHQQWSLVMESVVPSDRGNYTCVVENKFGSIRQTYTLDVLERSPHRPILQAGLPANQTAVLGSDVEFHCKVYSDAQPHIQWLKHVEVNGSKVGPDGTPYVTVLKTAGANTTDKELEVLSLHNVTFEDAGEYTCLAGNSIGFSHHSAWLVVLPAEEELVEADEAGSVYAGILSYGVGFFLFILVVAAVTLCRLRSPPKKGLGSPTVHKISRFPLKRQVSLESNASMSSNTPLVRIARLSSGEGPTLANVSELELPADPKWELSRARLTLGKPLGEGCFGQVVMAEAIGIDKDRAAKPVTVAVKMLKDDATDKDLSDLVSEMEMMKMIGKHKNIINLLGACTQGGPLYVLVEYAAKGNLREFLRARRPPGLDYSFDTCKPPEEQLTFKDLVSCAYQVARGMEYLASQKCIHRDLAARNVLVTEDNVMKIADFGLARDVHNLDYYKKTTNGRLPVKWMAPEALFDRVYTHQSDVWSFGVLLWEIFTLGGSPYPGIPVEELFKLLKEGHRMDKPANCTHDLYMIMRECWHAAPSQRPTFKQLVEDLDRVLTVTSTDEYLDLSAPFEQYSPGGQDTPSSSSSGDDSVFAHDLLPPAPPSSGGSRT
T2 sequence (P21802 22-821): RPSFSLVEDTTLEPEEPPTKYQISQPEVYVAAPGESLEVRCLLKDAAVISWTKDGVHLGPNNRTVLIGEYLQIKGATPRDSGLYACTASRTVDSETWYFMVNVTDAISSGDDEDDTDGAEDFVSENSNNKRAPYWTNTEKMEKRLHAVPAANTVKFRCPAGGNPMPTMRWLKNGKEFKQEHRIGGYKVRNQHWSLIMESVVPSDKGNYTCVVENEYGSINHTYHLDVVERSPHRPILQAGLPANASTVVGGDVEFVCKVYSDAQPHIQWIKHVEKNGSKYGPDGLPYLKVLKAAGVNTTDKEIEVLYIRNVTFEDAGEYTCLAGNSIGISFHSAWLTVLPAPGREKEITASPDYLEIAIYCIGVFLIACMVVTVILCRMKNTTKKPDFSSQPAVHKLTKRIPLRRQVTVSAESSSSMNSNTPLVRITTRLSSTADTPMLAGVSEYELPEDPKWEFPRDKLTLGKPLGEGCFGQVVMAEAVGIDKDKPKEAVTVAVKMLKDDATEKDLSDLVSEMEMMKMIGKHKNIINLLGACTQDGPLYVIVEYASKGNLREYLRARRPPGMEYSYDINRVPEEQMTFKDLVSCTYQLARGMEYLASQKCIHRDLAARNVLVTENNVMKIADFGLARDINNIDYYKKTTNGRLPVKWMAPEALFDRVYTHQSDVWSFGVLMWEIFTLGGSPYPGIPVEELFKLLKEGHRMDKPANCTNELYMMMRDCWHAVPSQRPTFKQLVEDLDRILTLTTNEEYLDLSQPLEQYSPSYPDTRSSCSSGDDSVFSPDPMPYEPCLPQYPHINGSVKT

As a reminder, the IC50 is the point on the concentration scale where inhibition reaches its midpoint. `CNc1ncc2cc(-c3c(Cl)c(OC)cc(OC)c3Cl)c(=O)n(C3CCN(C(=O)/C=C/C[N+](C)(C)Cc4c([N+](=O)[O-])ncn4C)CC3)c2n1.[Br-]` [Compound 208, (E)-4-(4-(6-(2,6-dichloro-3,5-dimethoxyphenyl)-2-(methylamino)-7-oxopyrido[2,3-d]pyrimidin-8(7H)-yl)piperidin-1-yl)-N,N-dimethyl-N-((1-methyl-4-nitro-1H-imidazol-5-yl)methyl)-4-oxobut-2-en-1-aminium bromide]: the IC50 in data set [1] was 2580 nM; in data set [3] (setting [14]), 4150 nM; in [4] (setting [15]), 3 nM; in data set [4] (setting [16]), 13 nM. In addition, in [2], the “anti-tumour activity (median tumour growth delay)” value (“anti-tumour activity” below) was “significant anti-tumour activity”. The “time for tumours to reach 4 times relative tumour volume (RTV4)” value in [2] (control 12 days) is given as approximately 24 days. Besides, the “Hypoxic Cytotoxicity Ratio (HCR), SUM52” value in [4] is recorded as 5.

For `COc1cc(OC)c(Cl)c(-c2cc3cnc(Nc4ccccc4)nc3n(C3CCN(C(=O)/C=C/C[N+](C)(C)Cc4c([N+](=O)[O-])ncn4C)CC3)c2=O)c1Cl.[Br-]` [Compound 211, (E)-4-(4-(6-(2,6-dichloro-3,5-dimethoxyphenyl)-7-oxo-2-(phenylamino)pyrido[2,3-d]pyrimidin-8(7H)-yl)piperidin-1-yl)-N,N-dimethyl-N-((1-methyl-4-nitro-1H-imidazol-5-yl)methyl)-4-oxobut-2-en-1-aminium bromide], the IC50 was found to be 754 nM in data set [1]; 41 nM in data set [3] (setting [17]); 817 nM in data set [3] (setting [14]); 12 nM in [4] (setting [15]); 199 nM in data set [4] (setting [16]). Besides, the “anti-tumour activity” value in data set [2] is recorded as “significant anti-tumour activity”. For the same molecule, the “Hypoxic Cytotoxicity Ratio (HCR), H520” value in [3] is 20. The “Hypoxic Cytotoxicity Ratio (HCR), SUM52” value in data set [4] is listed as 16.

For the molecule `CCN(CC)CCCCNc1ncc2cc(-c3cc(OC)cc(OC)c3)c(NC(=O)NC(C)(C)C)nc2n1` [PD173074, reference compound], the IC50 turned out to be 12 nM in [5] (SUM52, 120 h, read-out: Cellular Anti-proliferative IC50, SUM52, 5 days drug exposure) and 84 nM in [9] (Homo sapiens, SW780, 120 h, read-out: Cellular Anti-proliferative IC50, SW780, 5 days drug exposure). For the same molecule, the “phospho-ERK1/2 after extensive drug washout” value in data set [6] (100 nM), in data set [6] (1000 nM), in data set [7] (100 nM), in data set [7] (1000 nM), in [8] (100 nM) and in [8] (1000 nM) was “restoration” each time. Further, the “reversible or irreversible inhibition of FGFR1 in cells” value in data set [6] (2 hours exposure, 100, 300 and 600 nM, with and without washout) is recorded as “potent reversible inhibitor”. Besides, the “concentration required to suppress FGFR1 signalling through phospho-ERK1/2” value in [6] (2 hours exposure, tested at 100, 300 and 600 nM) was not above 100 nM. The “inhibition of phosphorylation of ERK1/2, no washout” value was “less effective” in data set [8] (100 nM) and “complete inhibition” in data set [8] (1000 nM).

With `COc1cc(OC)c(Cl)c(-c2cc3cnc(NC(C)C)nc3n(Cc3cccc(NC(=O)/C=C/C[N+](C)(C)Cc4c([N+](=O)[O-])ncn4C)c3)c2=O)c1Cl.[Br-]` [Compound 213, (E)-4-((3-((6-(2,6-dichloro-3,5-dimethoxyphenyl)-2-(isopropylamino)-7-oxopyrido[2,3-d]pyrimidin-8(7H)-yl)methyl)phenyl)amino)-N,N-dimethyl-N-((1-methyl-4-nitro-1H-imidazol-5-yl)methyl)-4-oxobut-2-en-1-aminium bromide], the “anti-tumour activity” value in data set [2] was “significant anti-tumour activity”. Moreover, in [4], the “Hypoxic Cytotoxicity Ratio (HCR), SUM52” value is on record as 5. Besides, the IC50 was found to be 7 nM in data set [4] (setting [15]) and 40 nM in [4] (setting [16]).

For the molecule `CNc1ncc2c(n1)N([C@H]1CCCN(C(=O)/C=C/CN(C)C)C1)C(=O)N(c1c(Cl)c(OC)cc(OC)c1Cl)C2` [Compound 101, (S,E)-3-(2,6-dichloro-3,5-dimethoxyphenyl)-1-(1-(4-(dimethylamino)but-2-enoyl)piperidin-3-yl)-7-(methylamino)-3,4-dihydropyrimido[4,5-d]pyrimidin-2(1H)-one], the IC50 in data set [10] was less than 100 nM; in data set [5] (setting [18]), 9 nM; in data set [11], 163 nM; in data set [9] (setting [19]) it was 59 nM.

As to `CNc1ncc2c(n1)N([C@H]1CCCN(C(=O)/C=C/CN(C)C)C1)C(=O)N(c1c(Cl)c(OC)cc(OC)c1Cl)C2` [Compound 100, (S,E)-3-(2,6-dichloro-3,5-dimethoxyphenyl)-1-(1-(4-(dimethylamino)but-2-enoyl)piperidin-3-yl)-7-(methylamino)-3,4-dihydropyrimido[4,5-d]pyrimidin-2(1H)-one], the IC50 in [5] (setting [18]) is 3.3 nM; in data set [11] (Homo sapiens, Hep3B), 245 nM; in data set [9] (setting [19]), 28 nM.

In the case of `CNc1ncc2c(n1)N(CCCNC(=O)/C=C/CN(C)C)C(=O)N(c1c(Cl)c(OC)cc(OC)c1Cl)C2` [Compound 125, (E)-N-(3-(3-(2,6-dichloro-3,5-dimethoxyphenyl)-7-(methylamino)-2-oxo-3,4-dihydropyrimido[4,5-d]pyrimidin-1(2H)-yl)propyl)-4-(dimethylamino)but-2-enamide], the concentration for half-maximal inhibition (IC50) in [12] was 6.5 nM; in [13] it was 51 nM; in data set [10], more than 1000 nM.

On to `COc1cc(Nc2ncc3c(n2)N(C2CCN(C(=O)/C=C/CN(C)C)CC2)C(=O)N(c2c(Cl)c(OC)cc(OC)c2Cl)C3)ccc1F` [Compound 118, (E)-3-(2,6-dichloro-3,5-dimethoxyphenyl)-1-(1-(4-(dimethylamino)but-2-enoyl)piperidin-4-yl)-7-((4-fluoro-3-methoxyphenyl)amino)-3,4-dihydropyrimido[4,5-d] pyrimidin-2(1H)-one], for which the IC50 was 2.4 nM in [13]; < 100 nM and 9.6 nM in [10].

With `COc1cc(OC)c(Cl)c(-c2cc3cnc(NC(C)C)nc3n(C3CCN(C(=O)/C=C/C[N+](C)(C)Cc4c([N+](=O)[O-])ncn4C)CC3)c2=O)c1Cl.[Br-]` [Compound 209, (E)-4-(4-(6-(2,6-dichloro-3,5-dimethoxyphenyl)-2-(isopropylamino)-7-oxopyrido[2,3-d]pyrimidin-8(7H)-yl)piperidin-1-yl)-N,N-dimethyl-N-((1-methyl-4-nitro-1H-imidazol-5-yl)methyl)-4-oxobut-2-en-1-aminium bromide], the half-maximal inhibitory concentration (IC50) in [1] was 1570 nM; in [3] (setting [17]), 41 nM; in [3] (setting [14]), 1480 nM; in [4] (setting [15]), 4 nM; in data set [4] (setting [16]) it was 269 nM. In data set [2], the “anti-tumour activity” value is recorded as “significant anti-tumour activity”. Besides, in [3], the “Hypoxic Cytotoxicity Ratio (HCR), H520” value came to 36. For the same molecule, the “Hypoxic Cytotoxicity Ratio (HCR), SUM52” value in data set [4] was 68.
